Measurements published in paper PMC4546427, “Stereoselective Regulation of P-gp Activity by Clausenamide Enantiomers in Caco-2, KB/KBv and Brain Microvessel Endothelial Cells” (PLoS ONE, 2015).
“And” between values parts separate entries of the source, which are not always exact repeats. Identical values can stand only once.

Experiments:
P-gp [1] = test: P-gp expression in KB cells: Western blots; format: cell-based, Human; conditions: 5 μmol/L, 24 h, normalized to GAPDH
Description: The sensitive, non-induced KB cells on 6-well plates were grown to 80%–90% confluence and incubated with the following agents for 24 h at 37°C and 5% CO2: vehicle, (−)CLA (1 or 5 μmol/L), (+)CLA (1 or 5 μmol/L), or verapamil (100 μmol/L). The cells were washed 3 times with ice-cold PBS (pH 7.4) and were lysed with 80 μL of lysis buffer described above. Lysates were frozen with liquid nitrogen, thawed in water at 37°C three times and centrifuged at 15,000 ×g for 10 min. The protein concentration of the supernatant was determined by Lowry’s method with bovine serum albumin as the standard. Proteins (48 μg) were separated by SDS-PAGE on a 10% separating gel and 4% stacking gel, and were transferred onto Immobilon-P membranes. The transferred proteins were treated with a blocking buffer (5% non-fat dried milk and 0.02% NP-40 in PBS) and then incubated with P-gp or GAPDH antibodies (at a 1:100 dilution) or HRP-conjugated secondary antibodies (1:1000 dilution) at 37°C for 1 h, respectively. The protein bands were visualized with enhanced chemiluminescence according to the manufacturer’s instructions. The density of the bands was quantified by scanning densitometry (LAS-3000 Imaging System, Fujifilm, Japan; and Kodak Digital Science 1D Analysis Software, Rochester, NY, USA) and was expressed as normalized values to GAPDH.

[2] = design: method as in PMID 23684935; conditions: rabbits; oral dose of 100 mg/kg; cited from earlier work
[3] = design: method as in PMID 23684935; conditions: cited from earlier work
P-gp [4] = target: T1, P-gp (Homo sapiens, UniProt P08183); test: Rh123 accumulation in KBv cells; format: cell-based; conditions: for Percentage of rhodamine 123 accumulation relative to vehicle treatment: positive = increase; for Effect on P-gp efflux activity when combined with verapamil (in words): higher concentration CLA 10 μmol/L plus verapamil 200 μmol/L
T1 construct: three cells expressing P-gp, Caco-2, KBv and rat brain microvessel endothelial cells (RBMEC); endogenous in cells; host or cells: Caco-2
T1 sequence (P08183 whole entry): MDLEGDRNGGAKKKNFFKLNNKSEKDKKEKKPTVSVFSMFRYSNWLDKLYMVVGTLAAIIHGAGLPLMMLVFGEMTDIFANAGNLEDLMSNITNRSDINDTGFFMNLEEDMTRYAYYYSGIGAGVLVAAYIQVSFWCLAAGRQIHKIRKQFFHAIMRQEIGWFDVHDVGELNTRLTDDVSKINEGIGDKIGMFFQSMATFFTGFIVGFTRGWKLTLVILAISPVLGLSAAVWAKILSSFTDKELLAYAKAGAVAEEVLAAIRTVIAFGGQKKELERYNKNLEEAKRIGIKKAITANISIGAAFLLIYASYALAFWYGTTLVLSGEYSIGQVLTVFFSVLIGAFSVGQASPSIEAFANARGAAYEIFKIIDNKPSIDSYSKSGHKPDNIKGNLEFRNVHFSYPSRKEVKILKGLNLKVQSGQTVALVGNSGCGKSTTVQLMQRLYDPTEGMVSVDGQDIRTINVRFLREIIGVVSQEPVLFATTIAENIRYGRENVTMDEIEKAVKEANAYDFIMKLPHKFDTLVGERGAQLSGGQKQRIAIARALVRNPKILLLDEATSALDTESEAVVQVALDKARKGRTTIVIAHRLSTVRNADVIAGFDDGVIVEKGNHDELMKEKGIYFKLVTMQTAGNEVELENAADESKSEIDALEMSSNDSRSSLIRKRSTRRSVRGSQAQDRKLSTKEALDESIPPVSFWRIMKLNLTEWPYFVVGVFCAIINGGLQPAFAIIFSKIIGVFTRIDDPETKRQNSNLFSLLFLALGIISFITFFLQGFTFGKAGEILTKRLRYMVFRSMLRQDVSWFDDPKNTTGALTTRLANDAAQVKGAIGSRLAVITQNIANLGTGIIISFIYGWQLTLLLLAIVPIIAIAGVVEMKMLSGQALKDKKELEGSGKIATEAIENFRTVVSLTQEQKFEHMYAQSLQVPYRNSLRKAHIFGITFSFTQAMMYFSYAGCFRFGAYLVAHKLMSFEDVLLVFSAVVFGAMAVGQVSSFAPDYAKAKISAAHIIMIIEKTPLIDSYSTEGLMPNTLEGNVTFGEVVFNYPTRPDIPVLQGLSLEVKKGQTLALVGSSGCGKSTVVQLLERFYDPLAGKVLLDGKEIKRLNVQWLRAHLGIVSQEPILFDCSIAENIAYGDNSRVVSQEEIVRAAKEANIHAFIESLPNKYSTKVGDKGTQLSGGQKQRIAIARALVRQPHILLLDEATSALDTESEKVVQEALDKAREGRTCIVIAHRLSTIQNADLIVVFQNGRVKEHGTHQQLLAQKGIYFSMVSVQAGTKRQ
Description: KB or its vinblastine-resistance derivative KBv cells[19] were maintained on 6-well plates (5 × 10^5 cells/well) in […] medium with 10% FBS, 100 units/mL penicillin and 100 μg/mL streptomycin sulphate at 37°C with 95% air and 5% CO2. After reaching 80%–90% confluence, the two cells were treated with the following agents, respectively: vehicle; (−)CLA (5 or 10 μmol/L); (+)CLA (5 or 10 μmol/L). Additionally, the KBv cells were treated with verapamil (200 μmol/L); or individual enantiomer (5 or 10 μmol/L) plus verapamil (200 μmol/L). Rh123 (5 μmol/L) were finally added to these wells. Subsequently, cell incubation, solubilisation and Rh123 accumulation were performed by using the same method for Caco-2 cells.

P-gp [5] = test: Rh123 accumulation summarized over Caco-2, KBv and RBMECs; format: cell-based; conditions: mean of Caco-2, RBMEC, KBv
Description: Caco-2 cells were seeded onto 6-well plates at a density of 5 × 10^5 cells/well and maintained in MEM supplemented with 10% (v/v) FBS, 1% (v/v) NEAA, 100 units/mL penicillin and 100 μg/mL streptomycin sulphate in a humidified 37°C incubator with 5% CO2. Upon 80%–90% confluence, the cells were provided new complete medium (2 mL/well) and exposed, to vehicle, (−)CLA (1 or 5 μmol/L), (+)CLA (1 or 5 μmol/L), verapamil (200 μmol/L) or individual enantiomer (1 or 5 μmol/L) plus verapamil (200 μmol/L). Then, Rh123 (5 μmol/L) was added to all the wells. After incubation at 37°C and 5% CO2 for 2 h which was designed by the pharmacokinetic parameters of CLA enantiomers, the cells were washed 3 times with 2 mL of ice-cold PBS (pH 7.4), lysed in 400 μL of lysis buffer [50 mmol/L Tris-HCl (pH 8.0), 150 mmol/L NaCl, 0.1% SDS, 100 μg/mL PMSF, 1 μg/mL aprotinin and 1% Nonidet P-40], and then were placed on ice for 40 min. The plates were wrapped in tinfoil. The fluorescence of Rh123 in each well was detected by Spectra Max Gemini XS plate reader (Molecular Devices Corp., Sunnyvale, CA, USA) with excitation and emission wavelengths of 488 nm and 530 nm, respectively. Meanwhile, 10 μL of cell lysates were collected from each well to measure protein concentration using Lowry’s method. Intracellular Rh123 accumulation was normalized by protein concentration (mg/mL) and then was calculated by a standard curve of Rh123 at three concentrations (2.5–10 μmol/L), in parallel with the lysis experiment.
The experimental programs in this part were approved by the Animal Care and Welfare Committee in our institute. Animals were treated in accordance with national/international guidelines. Primary cultures of brain microvessel endothelial cells were prepared from Sprague—Dawley rats (10–12 days old; Beijing Vital River Company, Beijing, China), as previously described by Qian et al.[21]. The gray matter of animals was taken out and minced into small pieces of approximately 1 mm^3 in ice-cold MEM medium, then dissociated by using 2 mg/mL collagenase containing DNase at a final concentration of 10.5 μg/ml on a shaker for 20 min at 37°C. The cells were pelleted by centrifugation(1000 rpm, 10 min, 4°C) and digested once again according to the above protocol. Then 20% dextran(Mr 40,000) was added to the cells for differential centrifugation at 2000 rpm for 10 min. The cells were re-suspended in complete MEM medium and passed through 74-μm stainless steel mesh. […] The P-gp expression in cultured cells was determined by Western blot analyses using a mouse monoclonal antibody raised against amino acids 1040–1280 of P-gp. […]

CYP3A1 = test system: CYP3A1; design: method as in PMID 23684935, PMID 12692891; conditions: rat liver; cited from earlier work
[6] = high dose, CLA 10 μmol/L, Rh123 5 μmol/L
[7] = low dose, CLA 5 μmol/L, Rh123 5 μmol/L

Compound	P-gp expression upregulated relative to vehicle control (P-gp [1]) [%]	AUC0–8 h in the portal vein [2] [µg·h/mL]	Ratio [(+)/(−)] of cumulative amounts of biliary excretion [3]	Ratio [(+)/(−)] of cumulative amounts of urinary excretion [3]	Percentage of rhodamine 123 accumulation relative to vehicle treatment (P-gp [4]; [6])	Effect on P-gp efflux activity when combined with verapamil (in words) (P-gp [4])	Antagonism of the inhibition of verapamil to P-gp relative to verapamil treatment alone (P-gp [4]; low concentration CLA 5 μmol/L plus verapamil 200 μmol/L) [%]	Percentage of rhodamine 123 accumulation relative to vehicle treatment (P-gp [4]; [7])	Decrease of Rh123 intracellular accumulation vs. control (P-gp [4]; lower concentration, CLA 5 μmol/L, Rh123 5 μmol/L) [%]	Percentage of rhodamine 123 accumulation relative to vehicle treatment, Mean±SD, n = 3 (P-gp [5]; high dose) [%]	Percentage of rhodamine 123 accumulation relative to vehicle treatment, Mean±SD, n = 3 (P-gp [5]; low dose) [%]	P-gp expression downregulated relative to vehicle control (P-gp [1]) [%]	Induction of CYP3A1 expression, comparison of enantiomers (CYP3A1)
CN1C(=O)[C@H](O)[C@@H](c2ccccc2)[C@H]1[C@H](O)c1ccccc1 [(+)CLA, 3R,4S,5S,6R-CLA]	54.5	2453 ± 1101	3.49	3.81	24.5% and 24.49%	synergistic effect	35.5	-25.92%	25.9	41.28±16.86	-19.21±7.16		
CN1C(=O)[C@@H](O)[C@H](c2ccccc2)[C@@H]1[C@@H](O)c1ccccc1 [(−)CLA, 3S, 4R, 5R, 6S-clausenamide]		1001 ± 487			30.0%	synergistic effect		8.2% and 8.16%		50.48±17.88	18.90±10.22	15.9	higher expression of CYP3A1 than the (+)-isomer
